Measured values taken from ChEMBL document CHEMBL6083184, “Small molecule agents against alopecia: Potential targets and related pathways” (Eur J Med Chem, 2024).

Legend:
[1] = target: Mothers against decapentaplegic homolog 2 (Homo sapiens, UniProt Q15796); assay: Inhibition of SMAD2 (unknown origin)
[2] = Inhibition of MPC (unknown origin); set-up: species or system Homo sapiens

Mothers against decapentaplegic homolog 2, sequence (Q15796 whole entry): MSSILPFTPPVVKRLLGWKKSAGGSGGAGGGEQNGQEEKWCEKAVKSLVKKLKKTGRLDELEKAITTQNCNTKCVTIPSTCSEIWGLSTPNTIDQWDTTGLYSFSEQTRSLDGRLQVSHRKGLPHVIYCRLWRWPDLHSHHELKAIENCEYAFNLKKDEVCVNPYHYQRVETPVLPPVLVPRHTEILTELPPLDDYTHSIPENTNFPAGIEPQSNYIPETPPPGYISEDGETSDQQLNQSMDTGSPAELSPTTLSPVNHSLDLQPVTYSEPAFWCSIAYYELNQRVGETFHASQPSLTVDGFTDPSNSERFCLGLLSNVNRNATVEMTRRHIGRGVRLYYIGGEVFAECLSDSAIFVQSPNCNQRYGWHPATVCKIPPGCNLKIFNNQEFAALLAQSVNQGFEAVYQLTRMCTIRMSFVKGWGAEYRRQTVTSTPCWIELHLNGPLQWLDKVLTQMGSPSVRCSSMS

Row | IC50 [1] [µM] | IC50 [2] [µM] | SMILES
1 | 0.0087 | – | Cc1csc(-c2nc[nH]c2-c2ccc3ncsc3c2)n1
2 | – | 0.0166 | N#C/C(=C\c1cn(-c2ccccc2)c2ccccc12)C(=O)O
